From ChEMBL document CHEMBL4368865, “Synthesis, characterization and cytotoxic activity evaluation of ginsengdiol oxidation and nitrogen hybrid derivatives” (Medchemcomm, 2018)

Tests used:
[1] = Cytotoxicity against human IOSE-144 cells assessed as inhibition of cell proliferation after 48 hrs by MTT assay; format: cell-based; settings: IOSE-144, 48 h
[2] = Cytotoxicity against human 8901 cells assessed as inhibition of cell proliferation after 48 hrs by MTT assay; format: functional, cell-based
A549 [3] = assay: Cytotoxicity against human A549 cells assessed as inhibition of cell proliferation after 48 hrs by MTT assay; format: functional, cell-based; settings: A549, 48 h
U-87 MG = assay: Cytotoxicity against human U87 cells assessed as inhibition of cell proliferation after 48 hrs by MTT assay; format: functional, cell-based, U-87MG ATCC
HeLa [4] = assay: Cytotoxicity against human HeLa cells assessed as inhibition of cell proliferation after 48 hrs by MTT assay; format: functional, cell-based
MCF7 = assay: cells; format: functional, cell-based; settings: Homo sapiens, MCF7, 48 h
Description: Cytotoxicity against human MCF7 cells assessed as inhibition of cell proliferation after 48 hrs by MTT assay

A549 [5] = assay: Potency index, ratio of 5-fluorouracil IC50 to test compound IC50 for human A549 cells; format: functional
HeLa [6] = assay: Potency index, ratio of 5-fluorouracil IC50 to test compound IC50 for human HeLa cells; format: functional

Row | SMILES | IC50 [1] | IC50 [2] | IC50 (A549 [3]) | IC50 (U-87 MG) | IC50 (HeLa [4]) | IC50 (MCF7) | Ratio IC50 (A549 [5]) | Ratio IC50 (HeLa [6])
1 | CC(C)(O)CCC[C@@](C)(O)[C@H]1CC[C@]2(C)[C@@H]1[C@H](O)C[C@@H]1[C@@]3(C)CC[C@H](O)C(C)(C)[C@@H]3CC[C@]12C | > 100 µM | 46.5 µM | 27.9 µM | 25.1 µM | 19.6 µM | – | – | –
2 | COC(C)(C)CCC[C@@](C)(O)[C@H]1CC[C@]2(C)[C@@H]1[C@H](O)C[C@@H]1[C@@]3(C)CC[C@H](O)C(C)(C)[C@@H]3CC[C@]12C | > 100 µM | 38.5 µM | 29.3 µM | 19.5 µM | 29.4 µM | 44.6 µM | – | –
3 | CC(C)(O)CCC[C@@](C)(O)[C@H]1CC[C@]2(C)[C@@H]1C(=O)C[C@@H]1[C@@]3(C)CCC(=O)C(C)(C)[C@@H]3CC[C@]12C | > 100 µM | > 100 µM | 90 µM | > 100 µM | > 100 µM | 65.1 µM | – | –
4 | CC(C)(O)CCC[C@@](C)(O)[C@H]1CC[C@]2(C)[C@@H]1[C@H](O)C[C@@H]1[C@@](C)(CC(=O)O)[C@H](C(C)(C)C(=O)O)CC[C@]12C | > 100 µM | > 100 µM | > 100 µM | > 100 µM | > 100 µM | > 100 µM | – | –
5 | CC1(C)CCC[C@](C)([C@H]2CC[C@]3(C)[C@@H]2[C@H](O)C[C@@H]2[C@@]4(C)Cc5cnoc5C(C)(C)[C@@H]4CC[C@]23C)O1 | > 100 µM | > 100 µM | 67.3 µM | > 100 µM | > 100 µM | > 100 µM | – | –
6 | CC(C)(O)CCC[C@@](C)(O)[C@H]1CC[C@]2(C)[C@@H]1[C@H](O)C[C@@H]1[C@@]3(C)Cc4nccnc4C(C)(C)[C@@H]3CC[C@]12C | > 100 µM | 13.2 µM | 8.93 µM | 38.1 µM | > 100 µM | 17.7 µM | 2.6 | –
7 | COC(C)(C)CCC[C@@](C)(O)[C@H]1CC[C@]2(C)[C@@H]1[C@H](O)C[C@@H]1[C@@]3(C)C=C(O)C(=O)C(C)(C)[C@@H]3CC[C@]12C | > 100 µM | 25.9 µM | 21.6 µM | 20.7 µM | 39 µM | 35.7 µM | – | –
8 | CC(C)(O)CCC[C@@](C)(O)[C@H]1CC[C@]2(C)[C@@H]1[C@H](O)C[C@@H]1[C@@]3(C)C=C(O)C(=O)C(C)(C)[C@@H]3CC[C@]12C | > 100 µM | 87.8 µM | 24.3 µM | 45.4 µM | 50.9 µM | 46.2 µM | – | –
9 | COC(C)(C)CCC[C@@](C)(O)[C@H]1CC[C@]2(C)[C@@H]1[C@H](O)C[C@@H]1[C@@](C)(CC(=O)O)[C@H](C(C)(C)C=O)CC[C@]12C | > 100 µM | > 100 µM | 85 µM | > 100 µM | > 100 µM | > 100 µM | – | –
10 | CC1(C)CCC[C@](C)([C@H]2CC[C@]3(C)[C@@H]2[C@H](O)C[C@@H]2[C@@]4(C)Cc5c([nH]c6ccccc56)C(C)(C)[C@@H]4CC[C@]23C)O1 | > 100 µM | > 100 µM | > 100 µM | > 100 µM | > 100 µM | > 100 µM | – | –
11 | COC(C)(C)CCC[C@@](C)(O)[C@H]1CC[C@]2(C)[C@@H]1C(=O)C[C@@H]1[C@@]3(C)CC[C@H](O)C(C)(C)[C@@H]3CC[C@]12C | > 100 µM | 81.3 µM | 37.1 µM | 32.7 µM | 18 µM | 44.9 µM | – | –
12 | COC(C)(C)CCC[C@@](C)(O)[C@H]1CC[C@]2(C)[C@@H]1C(=O)C[C@@H]1[C@@]3(C)CCC(=O)C(C)(C)[C@@H]3CC[C@]12C | > 100 µM | > 100 µM | > 100 µM | > 100 µM | > 100 µM | 98.5 µM | – | –
13 | CC1(C)CCC[C@](C)([C@H]2CC[C@]3(C)[C@@H]2[C@H](O)C[C@@H]2[C@@]4(C)Cc5nc6ccccc6nc5C(C)(C)[C@@H]4CC[C@]23C)O1 | > 100 µM | > 100 µM | > 100 µM | > 100 µM | > 100 µM | > 100 µM | – | –
14 | CC(C)(O)CCC[C@@](C)(O)[C@H]1CC[C@]2(C)[C@@H]1C(=O)C[C@@H]1[C@@]3(C)Cc4nccnc4C(C)(C)[C@@H]3CC[C@]12C | > 100 µM | > 100 µM | 19.7 µM | > 100 µM | > 100 µM | 39.1 µM | – | –
15 | CC1(C)CCC[C@@](C)(O)[C@H]2CC[C@]3(C)[C@@H]2[C@@H](C[C@@H]2[C@@]4(C)CCC(=O)C(C)(C)[C@@H]4CC[C@]23C)O1 | > 100 µM | > 100 µM | 86.4 µM | 76.4 µM | > 100 µM | 91.9 µM | – | –
16 | CC1(C)CCC[C@](C)([C@H]2CC[C@]3(C)[C@@H]2[C@H](O)C[C@@H]2[C@@]4(C)Cc5nccnc5C(C)(C)[C@@H]4CC[C@]23C)O1 | > 100 µM | > 100 µM | > 100 µM | > 100 µM | > 100 µM | > 100 µM | – | –
17 | CC1(C)CCC[C@](C)([C@H]2CC[C@]3(C)[C@@H]2[C@H](O)C[C@@H]2[C@@](C)(CC(=O)O)[C@H](C(C)(C)C=O)CC[C@]23C)O1 | > 100 µM | > 100 µM | > 100 µM | > 100 µM | > 100 µM | > 100 µM | – | –
18 | Cc1ncc2c(n1)C(C)(C)[C@@H]1CC[C@]3(C)[C@H](C[C@@H](O)[C@@H]4[C@@H]([C@@]5(C)CCCC(C)(C)O5)CC[C@]43C)[C@@]1(C)C2 | > 100 µM | > 100 µM | > 100 µM | 86.3 µM | > 100 µM | 83 µM | – | –
19 | COC(C)(C)CCC[C@@](C)(O)[C@H]1CC[C@]2(C)[C@@H]1[C@H](O)C[C@@H]1[C@@]3(C)CCC(=O)C(C)(C)[C@@H]3CC[C@]12C | > 100 µM | 78.6 µM | 39.9 µM | > 100 µM | > 100 µM | 50.3 µM | – | –
20 | CC(C)(O)CCC[C@@](C)(O)[C@H]1CC[C@]2(C)[C@@H]1[C@H](O)C[C@@H]1[C@@]3(C)CCC(=O)C(C)(C)[C@@H]3CC[C@]12C | > 100 µM | > 100 µM | 25.7 µM | > 100 µM | > 100 µM | 66.6 µM | – | –
21 | CC1(C)CCC[C@](C)([C@H]2CC[C@]3(C)[C@@H]2[C@H](O)C[C@@H]2[C@@]4(C)CC(C=O)C(=O)C(C)(C)[C@@H]4CC[C@]23C)O1 (some centres undefined) | > 100 µM | 30.1 µM | 18.5 µM | 30.6 µM | 31.9 µM | 28.3 µM | – | –
22 | CC1(C)CCC[C@](C)([C@H]2CC[C@]3(C)[C@@H]2[C@H](O)C[C@@H]2[C@@]4(C)Cc5cn[nH]c5C(C)(C)[C@@H]4CC[C@]23C)O1 | > 100 µM | 13.5 µM | 9.62 µM | 26.2 µM | 11.7 µM | 18.9 µM | – | 2.5
23 | CC1(C)CCC[C@](C)([C@H]2CC[C@]3(C)[C@@H]2[C@H](O)C[C@@H]2[C@@]4(C)CC(C#N)=C(O)C(C)(C)[C@@H]4CC[C@]23C)O1 | > 100 µM | 25.7 µM | 12.9 µM | 41.6 µM | 12.7 µM | 29.7 µM | – | –
24 | CC(C)(O)CCC[C@@](C)(O)[C@H]1CC[C@]2(C)[C@@H]1C(=O)C[C@@H]1[C@@]3(C)CC[C@H](O)C(C)(C)[C@@H]3CC[C@]12C | > 100 µM | 66.5 µM | 50.6 µM | > 100 µM | > 100 µM | > 100 µM | – | –
25 | CC1(C)CCC[C@](C)([C@H]2CC[C@]3(C)[C@@H]2[C@H](O)C[C@@H]2[C@@]4(C)Cc5cnc(N)nc5C(C)(C)[C@@H]4CC[C@]23C)O1 | > 100 µM | 45.7 µM | 26.9 µM | 82.6 µM | 69.4 µM | 27.9 µM | – | –
26 | CC1(C)CCC[C@](C)([C@H]2CC[C@]3(C)[C@@H]2[C@H](O)C[C@@H]2[C@@]4(C)CC/C(=N\O)C(C)(C)[C@@H]4CC[C@]23C)O1 | > 100 µM | > 100 µM | > 100 µM | > 100 µM | > 100 µM | > 100 µM | – | –
27 | CC1(C)CCC[C@](C)([C@H]2CC[C@]3(C)[C@@H]2[C@H](O)C[C@@H]2[C@@]4(C)C=C(O)C(=O)C(C)(C)[C@@H]4CC[C@]23C)O1 | > 100 µM | 50.1 µM | 40 µM | 20.2 µM | 25 µM | 23.6 µM | – | –
28 | CC1(C)CCC[C@](C)([C@H]2CC[C@]3(C)[C@@H]2[C@H](O)C[C@@H]2[C@@]4(C)CCC(=O)C(C)(C)[C@@H]4CC[C@]23C)O1 | > 100 µM | > 100 µM | > 100 µM | 90 µM | 66.4 µM | 78.1 µM | – | –
29 | O=c1[nH]cc(F)c(=O)[nH]1 [FLUOROURACIL] | 34.8 µM | 33.3 µM | – | 22 µM | 28.2 µM | – | – | –
30 | CC1(C)CCC[C@](C)([C@H]2CC[C@]3(C)[C@@H]2[C@H](O)C[C@@H]2[C@@]4(C)CC[C@H](O)C(C)(C)[C@@H]4CC[C@]23C)O1 [PANAXADIOL] | > 100 µM | > 100 µM | 44.6 µM | > 100 µM | > 100 µM | 52.6 µM | – | –
